Blank lines part the entries; values can stand above or below the molecule they belong to.
Tests used:
[1] = relative to sucrose; cited from earlier work
[2] = suitable for use in carbonated beverages and many other foods; cited from earlier work
Type II diabetics = conditions: studies suggest; cited from earlier work
[3] = tested on: mildly hypertensive patients; conditions: studies suggest; cited from earlier work
[4] = solubility in washing liquid (95% ethanol); type: physicochemical; conditions: in 95% ethanol (washing liquid)
Experimental: The suspension of 2.5 g crystals in 100 ml water was heated to 75° C. for 10 minutes to dissolve the crystals. The solution was cooled to 20° C. at 10° C./h and incubated at this temperature overnight. The crystals formed were filtered by vacuum and washed with two cake volumes of 95% ethanol
The choice of washing liquid was because of the low rebaudioside M solubility in it. The crystals were dried at 60° C. under vacuum overnight. […] The crystals contained >95% Reb-M as determined by LC-UV and the level of all KAG was below the limit of detection of LC-MS.

[5] = spontaneous crystallization from nanofiltration retentate; type: physicochemical; conditions: aqueous nanofiltration retentate of fermentation broth
Experimental: The fermentation broth after laboratory scale fermentations was processed as follows: • centrifugation 30 min at 4000×g; • pH in the supernatant was adjusted to 3.5 and supernatant was heated 30 min at 70° C.; • the heated supernatant was clarified by centrifugation; • the clarified supernatant was ultrafiltrated through a membrane with 10 kDa cut-off; and • the permeate after ultrafiltration was nanofiltrated using a membrane with 150-300 Da cut-off.
Finally, 14.5 g of dried crystals were isolated out of 0.871 kg NF retentate.

Structure (SMILES): C=C1C[C@@]23CC[C@H]4[C@@](C)(CCC[C@@]4(C)C(=O)O[C@@H]4O[C@H](CO)[C@@H](O)[C@H](O)[C@H]4O[C@@H]4O[C@H](CO)[C@@H](O)[C@H](O)[C@H]4O)[C@@H]2CC[C@]1(O[C@@H]1O[C@H](CO)[C@@H](O)[C@H](O[C@@H]2O[C@H](CO)[C@@H](O)[C@H](O)[C@H]2O)[C@H]1O[C@@H]1O[C@H](CO)[C@@H](O)[C@H](O)[C@H]1O)C3 [rebaudioside D]
times sweeter than sucrose [1]: about 200 times

Structure (SMILES): C=C1C[C@@]23CC[C@H]4[C@@](C)(CCC[C@@]4(C)C(=O)O[C@@H]4O[C@H](CO)[C@@H](O)[C@H](O)[C@H]4O)[C@@H]2CC[C@]1(O[C@@H]1O[C@H](CO)[C@@H](O)[C@H](O)[C@H]1O[C@@H]1O[C@H](CO)[C@@H](O)[C@H](O)[C@H]1O)C3 [Stevioside]
heat and pH stability [2]: heat and pH stable | effect on blood glucose levels (Type II diabetics): can reduce blood glucose levels | effect on blood pressure [3]: can reduce blood pressure

Structure (SMILES): C=C1C[C@@]23CC[C@H]4[C@@](C)(CCC[C@@]4(C)C(=O)O[C@@H]4O[C@H](CO)[C@@H](O)[C@H](O)[C@H]4O)[C@@H]2CC[C@]1(O[C@@H]1O[C@H](CO)[C@@H](O)[C@H](O[C@@H]2O[C@H](CO)[C@@H](O)[C@H](O)[C@H]2O)[C@H]1O[C@@H]1O[C@H](CO)[C@@H](O)[C@H](O)[C@H]1O)C3 [rebaudioside A]
heat and pH stability [2]: heat and pH stable

solubility [4]: low | concentration in the retentate of nanofiltration at which crystallization begins spontaneously [5]: exceeded 30 g/I
Structure (SMILES): C=C1C[C@@]23CC[C@H]4[C@@](C)(CCC[C@@]4(C)C(=O)O[C@@H]4O[C@H](CO)[C@@H](O)[C@H](O[C@@H]5O[C@H](CO)[C@@H](O)[C@H](O)[C@H]5O)[C@H]4O[C@@H]4O[C@H](CO)[C@@H](O)[C@H](O)[C@H]4O)[C@@H]2CC[C@]1(O[C@@H]1O[C@H](CO)[C@@H](O)[C@H](O[C@@H]2O[C@H](CO)[C@@H](O)[C@H](O)[C@H]2O)[C@H]1O[C@@H]1O[C@H](CO)[C@@H](O)[C@H](O)[C@H]1O)C3 [rebaudioside M]

From patent publication US11878992B2, “Crystallization of steviol glycosides” (DSM IP Assets B.V., priority 2016, dated 2024)
